The text below walks through data of US9149056B2, “Compositions and methods relating to carotenoids” (The Iams Company, priority 2011, dated 2015).

Molecules are shown by their SMILES.

For data set [1], the system named is Caco-2 cells. The format is in vitro ADME. The following applies: human, Caco-2, 4 h. The source says: An in vitro digestion coupled with intestinal culture model was developed to mimic the in vivo absorption of carotenoids. It is important to note that absorption as determined by in vitro digestion is highly correlated with data derived by sampling small intestinal luminal contents from human subjects fed carotenoid rich vegetables and bioavailability data from published human studies.
The interactions among beta-carotene (B), lutein (L), and astaxanthin (A) or astaxanthin ester (AE) were examined using the coupled simulated digestion/Caco-2 cell model. Cellular carotenoids after four hour incubation with micelles generated during simulated digestion of carotenoid-rich oil are presented in Table 2 below.
Simulated digestion: Non-fat yogurt (2.7 g) was homogenized in 10 mL 120 mM salt solution. The mixture was transferred to 50 mL glass test tube. Carotenoid rich oil was carefully added for each reaction (6 replicates per test oil), and total volume of oil was adjusted to 300 μL using soybean oil. The procedure for the simulated digestion followed the standard protocol (See Failla M L., Chitchumroonchokchai C. (2005) In vitro models as tools for screening the relative bioavailabilities of provitamin A carotenoids in foods. HarvestPlus Technical Monograph Series 3. 32 p. www.harvestplus.org/pdfs/tech03.pdf), except that reactions contained pancreatic enzymes and bile extract. […] After completing gastric and small intestinal digestion, an aliquot (9 ml.) of digesta was centrifuged at 12,000×g, 4° C. for 45 min. to isolate aqueous fraction containing micellar carotenoids from residual undigested materials. The aqueous fraction was passed through syringe filter (0.22 μm) to determine carotenoids that partitioned into either aqueous or micellar phase. Aliquots of digesta and aqueous fraction were stored at −20° C. for a maximum of one week before extraction. Beta-carotene and lutein was quantified according to Chitchumrronchokchai et al. (See Chitchumroonchokchai C., Schwartz S J., Failla M L. Assessment of lutein bioavailability from meals and supplement using simulated digestion and Caco-2 human intestinal cells. J Nutr. 2004; 134:2280-2286), and astaxanthin was measured as described in Lin W C et al. (Lin W C, Chien J T, Chen B H. Determination of carotenoids in spear shrimp shells (Parapenaeopsis hardwickii) by liquid chromatography. J Agric Food Chem. 2005 Jun. 29; 53(13):5144-9).
Cell uptake of carotenoids from micelles generated during digestion of oil enriched with individual carotenoids or mixtures of carotenoids: Caco-2 cells (HTB37; passages 25-28) obtained from ATCC ([…]) at passage 19 were maintained in 6-well plastic dishes. The cells were cultured in complete DMEM plus 15% heat inactivated FBS during replication phase. […]

The test system of data set [2] is Caco-2 human intestinal cells. The format is in vitro ADME. Conditions: Caco-2, 18 h. How it is done: The interactions among beta-carotene (B), lutein (L), and astaxanthin (A) were examined using a Caco-2 cell model.
Caco-2 human intestinal cells were grown and maintained on transwell inserts (3.0 μm pores) according to protocol in Failla M L., Chitchumroonchokchai C. (2005) In vitro models as tools for screening the relative bioavailabilities of provitamin A carotenoids in foods. HarvestPlus Technical Monograph Series 3. 32 p. www.harvestplus.org/pdfs/tech03.pdf. Cultures were used at 21 days post-confluency (dpc).
The stock synthetic micelles (SM) containing either β-carotene (B), lutein (L), or astaxanthin (A) was prepared as described by Chitchumroonchokchai et al. (2004).
Treated cells were incubated in humidified environment of 95% air, 5% CO2 at 37° C. for 18 hours before spent medium in apical chamber (AP) and basolateral medium (BL) were collected. All samples were frozen at −80° C. under nitrogen until analysis. Carotenoid analysis in media and cells were quantified as described by Chitchumroonchokchai (See Chitchumroonchokchai C., Schwartz S J., Failla M L. Assessment of lutein bioavailability from meals and supplement using simulated digestion and Caco-2 human intestinal cells. J Nutr. 2004; 134:2280-2286). Protein content of cells was determined by the bicinchoninic acid assay (Pierce—www.piercenet.com/files/1296 as8.pdf). […]

In the case of `CC1=C(/C=C/C(C)=C/C=C/C(C)=C/C=C/C=C(C)/C=C/C=C(C)/C=C/C2=C(C)CCCC2(C)C)C(C)(C)CCC1` [Beta-carotene, beta-carotene], in data set [1], the “% Carotenoid Cellular Uptake, B” value amounted to 5.70% and the “% Increase in Carotenoid Cellular Uptake, B” value was 0.00%. Also, the “% Increase in Carotenoid Cellular Uptake Compared to Single Carotenoid, B” value in data set [2] is on record as 0.00%.
Take `CC1=C[C@H](O)CC(C)(C)[C@H]1/C=C/C(C)=C/C=C/C(C)=C/C=C/C=C(C)/C=C/C=C(C)/C=C/C1=C(C)C[C@@H](O)CC1(C)C` [Lutein, lutein]: in data set [1], the “% Carotenoid Cellular Uptake, L” value came to 6.02% and the “% Increase in Carotenoid Cellular Uptake, L” value amounted to 0.00%. The “% Increase in Carotenoid Cellular Uptake Compared to Single Carotenoid, L” value in data set [2] came out at 0.00%.
